Values of other authors as cited in article PMC8513935.
Values belong to the molecule of their own block, whether it stands above or below them.

Experiments:
[1] = log P octanol/water from commercial databases, averaged (the ESI); conditions: Octanol (wet), 25 C
[2] = derived by the authors as gas->solvent minus gas->water (a hypothetical dry solvent; the ESI), not a two-phase measurement
[3] = experimental, compiled by the authors from the literature (the ESI cites the sources)

SMILES: CCCCCC
log K of transfer, water to solvent [1]: 3.9 log10 K
log K of transfer, gas to solvent ([3]; 1,2-Dichloroethane, 25 C): 2.51 log10 K
log K of transfer, gas to solvent ([3]; 2-Methylpropan-1-ol, 25 C): 2.46 log10 K
log K of transfer, gas to solvent ([3]; 2-Methylpropan-2-ol, 25 C): 2.44 log10 K
log K of transfer, gas to solvent ([3]; 3-Methylbutan-1-ol, 25 C): 2.39 log10 K
log K of transfer, gas to solvent ([3]; Acetonitrile, 25 C): 1.96 log10 K
log K of transfer, gas to solvent ([3]; Benzene, 25 C): 2.65 log10 K
log K of transfer, gas to solvent ([3]; Butan-1-ol, 25 C): 2.44 log10 K
log K of transfer, gas to solvent ([3]; Butanone, 25 C): 2.52 log10 K
log K of transfer, gas to solvent ([3]; Butyronitrile, 25 C): 2.34 log10 K
log K of transfer, gas to solvent ([3]; CCl4, 25 C): 2.98 log10 K
log K of transfer, gas to solvent ([3]; Chlorobenzene, 25 C): 2.95 log10 K
log K of transfer, gas to solvent ([3]; Chloroform, 25 C): 2.87 log10 K
log K of transfer, gas to solvent ([3]; Cyclohexanone, 25 C): 2.44 log10 K
log K of transfer, gas to solvent ([3]; Di-n-butyl ether, 25 C): 2.82 log10 K
log K of transfer, gas to solvent ([3]; Dichloromethane, 25 C): 2.75 log10 K
log K of transfer, gas to solvent ([3]; Ethanol, 25 C): 2.24 log10 K
log K of transfer, gas to solvent ([3]; Heptan-1-ol, 25 C): 2.44 log10 K
log K of transfer, gas to solvent ([3]; Hexadecane, 25 C): 2.67 log10 K
log K of transfer, gas to solvent ([3]; Hexan-1-ol, 25 C): 2.48 log10 K
log K of transfer, gas to solvent ([3]; Hexane, 25 C): 2.97 log10 K
log K of transfer, gas to solvent ([3]; Methanol, 25 C): 2.05 log10 K
log K of transfer, gas to solvent ([3]; Octan-1-ol, 25 C): 2.44 log10 K
log K of transfer, gas to solvent ([3]; Pentan-1-ol, 25 C): 2.44 log10 K
log K of transfer, gas to solvent ([3]; Perfluoroalkane, 25 C): 1.88 log10 K
log K of transfer, gas to solvent ([3]; Propan-1-ol, 25 C): 2.28 log10 K
log K of transfer, gas to solvent ([3]; Propan-2-ol, 25 C): 2.3 log10 K
log K of transfer, gas to solvent ([3]; Propanone, 25 C): 2.37 log10 K
log K of transfer, gas to solvent ([3]; Propionitrile, 25 C): 2.22 log10 K
log K of transfer, gas to solvent ([3]; Tetrahydrofuran, 25 C): 2.84 log10 K
log K of transfer, gas to solvent ([3]; Toluene, 25 C): 2.82 log10 K
log K of transfer, gas to solvent ([3]; Water, 25 C): -1.82 log10 K

SMILES: c1ccccc1
log K of transfer, water to solvent [1]: 2.08 log10 K
log K of transfer, water to solvent ([2]; 1,2-Dichloroethane, 25 C): 2.69 log10 K
log K of transfer, water to solvent ([2]; 2-Methylpropan-1-ol, 25 C): 2.09 log10 K
log K of transfer, water to solvent ([2]; 2-Methylpropan-2-ol, 25 C): 2.09 log10 K
log K of transfer, water to solvent ([2]; Acetone, 25 C): 2.58 log10 K
log K of transfer, water to solvent ([2]; Acetonitrile, 25 C): 2.43 log10 K
log K of transfer, water to solvent ([2]; Benzene, 25 C): 2.71 log10 K
log K of transfer, water to solvent ([2]; Butan-1-ol, 25 C): 2.24 log10 K
log K of transfer, water to solvent ([2]; Butan-2-ol, 25 C): 2.14 log10 K
log K of transfer, water to solvent ([2]; Butanone, 25 C): 2.66 log10 K
log K of transfer, water to solvent ([2]; Butyronitrile, 25 C): 2.6 log10 K
log K of transfer, water to solvent ([2]; CCl4, 25 C): 2.61 log10 K
log K of transfer, water to solvent ([2]; Chlorobenzene, 25 C): 2.61 log10 K
log K of transfer, water to solvent ([2]; Chloroform, 25 C): 2.76 log10 K
log K of transfer, water to solvent ([2]; Cyclohexane, 25 C): 2.3 log10 K
log K of transfer, water to solvent ([2]; Cyclohexanone, 25 C): 2.67 log10 K
log K of transfer, water to solvent ([2]; Decan-1-ol, 25 C): 2 log10 K
log K of transfer, water to solvent ([2]; Di-n-butyl ether, 25 C): 2.38 log10 K
log K of transfer, water to solvent ([2]; Dichloromethane, 25 C): 2.89 log10 K
log K of transfer, water to solvent ([2]; Ethanol, 25 C): 2.15 log10 K
log K of transfer, water to solvent ([2]; Heptan-1-ol, 25 C): 2.18 log10 K
log K of transfer, water to solvent ([2]; Hexadecane, 25 C): 2.15 log10 K
log K of transfer, water to solvent ([2]; Hexane, 25 C): 2.31 log10 K
log K of transfer, water to solvent ([2]; Methanol, 25 C): 2.14 log10 K
log K of transfer, water to solvent ([2]; Octan-1-ol(dry), 25 C): 2.17 log10 K
log K of transfer, water to solvent ([2]; Pentan-1-ol, 25 C): 2.2 log10 K
log K of transfer, water to solvent ([2]; Propan-1-ol, 25 C): 2.15 log10 K
log K of transfer, water to solvent ([2]; Propan-2-ol, 25 C): 2.04 log10 K
log K of transfer, water to solvent ([2]; Propionitrile, 25 C): 2.6 log10 K
log K of transfer, water to solvent ([2]; Tetrahydrofuran, 25 C): 2.85 log10 K
log K of transfer, water to solvent ([2]; Toluene, 25 C): 2.64 log10 K

SMILES: C
log K of transfer, water to solvent [1]: 1.09 log10 K
log K of transfer, water to solvent ([2]; Acetone, 25 C): 1.24 log10 K
log K of transfer, water to solvent ([2]; Butan-1-ol, 25 C): 1.15 log10 K
log K of transfer, water to solvent ([2]; CCl4, 25 C): 1.32 log10 K
log K of transfer, water to solvent ([2]; Chlorobenzene, 25 C): 1.13 log10 K
log K of transfer, water to solvent ([2]; Decan-1-ol, 25 C): 1.05 log10 K
log K of transfer, water to solvent ([2]; Diethyl Ether, 25 C): 1.48 log10 K
log K of transfer, water to solvent ([2]; Ethanol, 25 C): 1.17 log10 K
log K of transfer, water to solvent ([2]; Heptan-1-ol, 25 C): 1.11 log10 K
log K of transfer, water to solvent ([2]; Hexadecane, 25 C): 1.14 log10 K
log K of transfer, water to solvent ([2]; Hexan-1-ol, 25 C): 1.12 log10 K
log K of transfer, water to solvent ([2]; Hexane, 25 C): 1.44 log10 K
log K of transfer, water to solvent ([2]; Methanol, 25 C): 1.19 log10 K
log K of transfer, water to solvent ([2]; Octan-1-ol(dry), 25 C): 1.08 log10 K
log K of transfer, water to solvent ([2]; Pentan-1-ol, 25 C): 1.13 log10 K
log K of transfer, water to solvent ([2]; Perfluoroalkane, 25 C): 1.42 log10 K
log K of transfer, water to solvent ([2]; Propan-1-ol, 25 C): 1.17 log10 K
log K of transfer, water to solvent ([2]; Propan-2-ol, 25 C): 1.13 log10 K
log K of transfer, water to solvent ([2]; Tetrahydrofuran, 25 C): 1.28 log10 K

More lines, now with the values ahead:

log K of transfer, water to solvent [1]: -0.755 log10 K
log K of transfer, water to solvent ([2]; 1,2-Dichloroethane, 25 C): -1.58 log10 K
log K of transfer, water to solvent ([2]; 2-Methylpropan-1-ol, 25 C): -0.58 log10 K
log K of transfer, water to solvent ([2]; 2-Methylpropan-2-ol, 25 C): -0.35 log10 K
log K of transfer, water to solvent ([2]; 3-Methylbutan-1-ol, 25 C): -0.672 log10 K
log K of transfer, water to solvent ([2]; Acetone, 25 C): -0.71 log10 K
log K of transfer, water to solvent ([2]; Acetonitrile, 25 C): -0.81 log10 K
log K of transfer, water to solvent ([2]; Benzene, 25 C): -1.85 log10 K
log K of transfer, water to solvent ([2]; Butan-1-ol, 25 C): -0.72 log10 K
log K of transfer, water to solvent ([2]; Butan-2-ol, 25 C): -0.45 log10 K
log K of transfer, water to solvent ([2]; Butanone, 25 C): -0.93 log10 K
log K of transfer, water to solvent ([2]; Butyronitrile, 25 C): -1.06 log10 K
log K of transfer, water to solvent ([2]; CCl4, 25 C): -2.24 log10 K
log K of transfer, water to solvent ([2]; Chlorobenzene, 25 C): -2.07 log10 K
log K of transfer, water to solvent ([2]; Chloroform, 25 C): -1.33 log10 K
log K of transfer, water to solvent ([2]; Cyclohexane, 25 C): -2.77 log10 K
log K of transfer, water to solvent ([2]; Decan-1-ol, 25 C): -1.21 log10 K
log K of transfer, water to solvent ([2]; Di-n-butyl ether, 25 C): -1.8 log10 K
log K of transfer, water to solvent ([2]; Dichloromethane, 25 C): -1.45 log10 K
log K of transfer, water to solvent ([2]; Diethyl Ether, 25 C): -1.26 log10 K
log K of transfer, water to solvent ([2]; Ethanol, 25 C): -0.34 log10 K
log K of transfer, water to solvent ([2]; Hexadecane, 25 C): -2.77 log10 K
log K of transfer, water to solvent ([2]; Hexane, 25 C): -2.59 log10 K
log K of transfer, water to solvent ([2]; Methanol, 25 C): -0.14 log10 K
log K of transfer, water to solvent ([2]; Octan-1-ol(dry), 25 C): -0.9 log10 K
log K of transfer, water to solvent ([2]; Pentan-1-ol, 25 C): -0.67 log10 K
log K of transfer, water to solvent ([2]; Propan-1-ol, 25 C): -0.59 log10 K
log K of transfer, water to solvent ([2]; Propan-2-ol, 25 C): -0.46 log10 K
log K of transfer, water to solvent ([2]; Tetrahydrofuran, 25 C): -0.9 log10 K
log K of transfer, water to solvent ([2]; Toluene, 25 C): -2.14 log10 K
SMILES: CO

log K of transfer, water to solvent [1]: 2.89 log10 K
log K of transfer, gas to solvent ([3]; 2-Methylpropan-1-ol, 25 C): 1.49 log10 K
log K of transfer, gas to solvent ([3]; 2-Methylpropan-2-ol, 25 C): 1.52 log10 K
log K of transfer, gas to solvent ([3]; 3-Methylbutan-1-ol, 25 C): 1.48 log10 K
log K of transfer, gas to solvent ([3]; Butan-1-ol, 25 C): 1.37 log10 K
log K of transfer, gas to solvent ([3]; Butanone, 25 C): 1.69 log10 K
log K of transfer, gas to solvent ([3]; CCl4, 25 C): 1.96 log10 K
log K of transfer, gas to solvent ([3]; Chlorobenzene, 25 C): 1.7 log10 K
log K of transfer, gas to solvent ([3]; Cyclohexane, 25 C): 2.1 log10 K
log K of transfer, gas to solvent ([3]; Di-n-butyl ether, 25 C): 1.79 log10 K
log K of transfer, gas to solvent ([3]; Ethanol, 25 C): 1.4 log10 K
log K of transfer, gas to solvent ([3]; Heptan-1-ol, 25 C): 1.43 log10 K
log K of transfer, gas to solvent ([3]; Hexadecane, 25 C): 1.61 log10 K
log K of transfer, gas to solvent ([3]; Hexane, 25 C): 1.87 log10 K
log K of transfer, gas to solvent ([3]; Methanol, 25 C): 1.27 log10 K
log K of transfer, gas to solvent ([3]; Octan-1-ol, 25 C): 1.53 log10 K
log K of transfer, gas to solvent ([3]; Pentan-1-ol, 25 C): 1.49 log10 K
log K of transfer, gas to solvent ([3]; Propan-1-ol, 25 C): 1.45 log10 K
log K of transfer, gas to solvent ([3]; Propan-2-ol, 25 C): 1.49 log10 K
log K of transfer, gas to solvent ([3]; Propanone, 25 C): 1.56 log10 K
log K of transfer, gas to solvent ([3]; Water, 25 C): -1.52 log10 K
SMILES: CCCC

log K of transfer, water to solvent [1]: 3.88 log10 K
log K of transfer, gas to solvent ([3]; Butanone, 25 C): 3.02 log10 K
log K of transfer, gas to solvent ([3]; Butyronitrile, 25 C): 2.99 log10 K
log K of transfer, gas to solvent ([3]; Heptan-1-ol, 25 C): 3.05 log10 K
log K of transfer, gas to solvent ([3]; Hexadecane, 25 C): 3.32 log10 K
log K of transfer, gas to solvent ([3]; Octan-1-ol, 25 C): 3.05 log10 K
log K of transfer, gas to solvent ([3]; Propan-2-ol, 25 C): 2.78 log10 K
log K of transfer, gas to solvent ([3]; Propanone, 25 C): 2.88 log10 K
log K of transfer, gas to solvent ([3]; Propionitrile, 25 C): 2.85 log10 K
log K of transfer, gas to solvent ([3]; Tetrahydrofuran, 25 C): 3.42 log10 K
log K of transfer, gas to solvent ([3]; Water, 25 C): -1.25 log10 K
SMILES: CC1CCCCC1
